Assay results taken from US20220401514A1, “ANTIMICROBIAL, BACTERIOPHAGE-DERIVED POLYPEPTIDES AND THEIR USE AGAINST GRAM-NEGATIVE AND ACID-FAST BACTERIA” (CONTRAFECT CORPORATION, priority 2019, published 2022).
Converted amounts (≈) assume the structure as drawn.

Key:
[1] = system: carbapenamase-producing Enterobacteriaceae isolates; experiment: MIC against CDC Carbapenamase Enterobacteriaceae panel (n = 53); format: cell-based
Excerpt: Additionally, a third panel of 53 carbapenamase-producing Enterobacteriaceae isolates were selected to represent a diversity of species and carbapenemases. See wwwn.cdc.gov/ARIsolateBank/Panel/PanelDetail?ID=8.

[2] = system: Gram-negative bacteria (including P. aeruginosa, E. cloacae, K. pneumoniae, E. coli, and A. baumannii); experiment: Propidium iodide uptake; format: cell-based
Excerpt: The damage caused by the Chp peptides disclosed herein to the outer and inner membranes of Gram-negative bacteria can also be assessed with impermeable dyes such as propidium iodide. […] AGENTS CHEMO. 2012; 56:5698-5708.

[3] = system: Gram-negative with varying susceptibility to imipenem and relebactam; experiment: MIC against CDC Imipenem/Relebactam panel (n = 28); format: cell-based
Description: MIC values were determined using the methodology described above, i.e., the standard broth microdilution reference method defined by CLSI.
See wwwn.cdc.gov/ARIsolateBank/Panel/PanelDetail?ID=10.

[4] = system: inner membrane of Gram-negative bacteria (including P. aeruginosa, E. cloacae, K. pneumoniae, E. coli, and A. baumannii); experiment: Inner membrane depolarization, diSC3-5 release; format: cell-based
Description: The mechanism of action of Chp peptides disclosed herein can also be evaluated by measuring the depolarization of the inner membrane of Gram-negative bacteria. […] Upon permeabilization of the outer membrane, the ability of Chp peptides to induce dissipation of the cytoplasmic membrane electrical potential gradient (Δψ) may be examined, for example by following the release of 3,3′-dipropylthiadicarbocyanine (diSC3-5) as a function of time compared to an untreated control. DiSC3-5 is a fluorophore that is a caged cation concentrated within the bacterial inner membrane and under the influence of the bacterial membrane electrical potential gradient. At high concentrations, diSC3-5 self-quenches, leading to the suppression of fluorescence. When the inner membrane deteriorates or becomes leaky for cations, including protons, the A it dissipates, which leads to a release of diSC3-5 and a subsequent increase in fluorescence.

[5] = system: Pseudomonas aeruginosa isolates; experiment: MIC against CDC Pseudomonas aeruginosa panel (n = 55); format: cell-based
[6] = system: Mycobacterium tuberculosis strains; experiment: microbe, parasite or virus in culture
Description: MIC values for various Chp peptides were determined using the CLSI method for broth microdilution in 96-well microtiter format.
Next, MIC values for various Chp peptides were determined using the CLSI method above for broth microdilution in 96-well microtiter format for two different Mycobacterium tuberculosis strains. The MIC was determined as explained above for the NTM strains.

[7] = Carbapenamase Enterobacteriaceae panel

Compound: MRLKMARRRYRLPRRRSRRLFSRTALRMHPRNRLRRIMRGGIRF [Chp2]
- MIC ([1]; Bank No. 0112, Klebsiella pneumoniae): 1 µg/mL
- MIC ([1]; Bank No. 0113, Klebsiella pneumoniae): 1 µg/mL
- MIC ([1]; Bank No. 0114, Escherichia coli): 0.5 µg/mL
- MIC ([1]; Bank No. 0115, Klebsiella pneumoniae): 1 µg/mL
- MIC ([1]; Bank No. 0116, Citrobacter freundii): 0.5 µg/mL
- MIC ([1]; Bank No. 0117, Klebsiella pneumoniae): 0.5 µg/mL
- MIC ([1]; Bank No. 0118, Escherichia coli): 0.5 µg/mL
- MIC ([1]; Bank No. 0119, Escherichia coli): 0.5 µg/mL
- MIC ([1]; Bank No. 0120, Klebsiella pneumoniae): 0.25 µg/mL
- MIC ([1]; Bank No. 0121, Serratia marcescens): > 8 µg/mL
- MIC ([1]; Bank No. 0122, Serratia marcescens): > 8 µg/mL
- MIC ([1]; Bank No. 0123, Serratia marcescens): > 8 µg/mL
- MIC ([1]; Bank No. 0124, Serratia marcescens): > 8 µg/mL
- MIC ([1]; Bank No. 0125, Klebsiella pneumoniae): 1 µg/mL
- MIC ([1]; Bank No. 0126, Klebsiella pneumoniae): 1 µg/mL
- MIC ([1]; Bank No. 0127, Salmonella Senftenberg): 0.5 µg/mL
- MIC ([1]; Bank No. 0128, Escherichia coli): 0.5 µg/mL
- MIC ([1]; Bank No. 0129, Klebsiella pneumoniae): 1 µg/mL
- MIC ([1]; Bank No. 0130, Serratia marcescens): > 8 µg/mL
- MIC ([1]; Bank No. 0131, Serratia marcescens): > 8 µg/mL
- MIC ([1]; Bank No. 0132, Enterobacter cloacae group): 1 µg/mL
- MIC ([1]; Bank No. 0134, Raoultella ornithinolytica): 1 µg/mL
- MIC ([1]; Bank No. 0135, Klebsiella pneumoniae): 0.5 µg/mL
- MIC ([1]; Bank No. 0136, Enterobacter cloacae): 0.5 µg/mL
- MIC ([1]; Bank No. 0137, Escherichia coli): 0.25 µg/mL
- MIC ([1]; Bank No. 0138, Klebsiella pneumoniae): 0.5 µg/mL
- MIC ([1]; Bank No. 0139, Klebsiella pneumoniae): 1 µg/mL
- MIC ([1]; Bank No. 0140, Klebsiella pneumoniae): 0.5 µg/mL
- MIC ([1]; Bank No. 0141, Klebsiella pneumoniae): 0.5 µg/mL
- MIC ([1]; Bank No. 0142, Klebsiella pneumoniae): 0.5 µg/mL
- MIC ([1]; Bank No. 0143, Klebsiella pneumoniae): 0.5 µg/mL
- MIC ([1]; Bank No. 0144, Kluyvera ascorbata): 0.25 µg/mL
- MIC ([1]; Bank No. 0145, Klebsiella pneumoniae): 1 µg/mL
- MIC ([1]; Bank No. 0146, Klebsiella pneumoniae): 1 µg/mL
- MIC ([1]; Bank No. 0147, Klebsiella oxytoca): 1 µg/mL
- MIC ([1]; Bank No. 0148, Klebsiella pneumoniae): 1 µg/mL
- MIC ([1]; Bank No. 0149, Escherichia coli): 0.5 µg/mL
- MIC ([1]; Bank No. 0150, Escherichia coli): 0.25 µg/mL
- MIC ([1]; Bank No. 0151, Escherichia coli): 0.25 µg/mL
- MIC ([1]; Bank No. 0152, Klebsiella pneumoniae): 1 µg/mL
- MIC ([1]; Bank No. 0153, Klebsiella pneumoniae): 0.5 µg/mL
- MIC ([1]; Bank No. 0154, Enterobacter cloacae): 0.25 µg/mL
- MIC ([1]; Bank No. 0155, Proteus mirabilis): 0.25 µg/mL
- MIC ([1]; Bank No. 0156, Proteus mirabilis): 0.5 µg/mL
- MIC ([1]; Bank No. 0157, Citrobacter freundii): 0.5 µg/mL
- MIC ([1]; Bank No. 0158, Klebsiella pneumoniae): 0.5 µg/mL
- MIC ([1]; Bank No. 0159, Proteus mirabilis): 0.25 µg/mL
- MIC ([1]; Bank No. 0160, Klebsiella pneumoniae): 1 µg/mL
- MIC ([1]; Bank No. 0161, Enterbacter aerogenes): 2 µg/mL
- MIC ([1]; Bank No. 0162, Escherichia coli): 0.25 µg/mL
- MIC ([1]; Bank No. 0163, Enterobacter cloacae): 0.25 µg/mL
- MIC ([1]; Bank No. 0164, Enterobacter cloacae complex): 1 µg/mL
- MIC50 [1, 7]: 0.5 µg/mL
- MIC90 [1, 7]: 1 µg/mL
- cell envelop permeability (propidium iodide uptake) [2]: dose-dependent increase in cell envelop permeability was equivalent to that of colistin, LL37, and melittin
- MIC ([3]; Bank No. 0501, Enterobacter cloacae): 0.5 µg/mL
- MIC ([3]; Bank No. 0502, Enterobacter cloacae): 0.5 µg/mL
- MIC ([3]; Bank No. 0504, Klebsiella pneumoniae): 0.5 µg/mL
- MIC ([3]; Bank No. 0505, Klebsiella pneumoniae): 1 µg/mL
- MIC ([3]; Bank No. 0506, Klebsiella pneumoniae): 1 µg/mL
- MIC ([3]; Bank No. 0507, Klebsiella pneumoniae): 0.5 µg/mL
- MIC ([3]; Bank No. 0508, Pseudomonas aeruginosa): 1 µg/mL
- MIC ([3]; Bank No. 0509, Pseudomonas aeruginosa): 1 µg/mL
- MIC ([3]; Bank No. 0510, Pseudomonas aeruginosa): 0.5 µg/mL
- MIC ([3]; Bank No. 0511, Pseudomonas aeruginosa): 0.5 µg/mL
- MIC ([3]; Bank No. 0512, Pseudomonas aeruginosa): 1 µg/mL
- MIC ([3]; Bank No. 0513, Pseudomonas aeruginosa): 0.5 µg/mL
- MIC ([3]; Bank No. 0514, Pseudomonas aeruginosa): 1 µg/mL
- MIC ([3]; Bank No. 0515, Pseudomonas aeruginosa): 0.5 µg/mL
- MIC ([3]; Bank No. 0516, Pseudomonas aeruginosa): 0.5 µg/mL
- MIC ([3]; Bank No. 0517, Serratia marcescens): > 8 µg/mL
- MIC ([3]; Bank No. 0518, Pseudomonas aeruginosa): 1 µg/mL
- MIC ([3]; Bank No. 0519, Morganella morganii): ng
- MIC ([3]; Bank No. 0520, Serratia marcescens): > 8 µg/mL
- MIC ([3]; Bank No. 0521, Serratia marcescens): > 8 µg/mL
- MIC ([3]; Bank No. 0522, Klebsiella pneumoniae): 0.5 µg/mL
- MIC ([3]; Bank No. 0523, Klebsiella pneumoniae): 0.5 µg/mL
- MIC ([3]; Bank No. 0524, Klebsiella pneumoniae): 1 µg/mL
- MIC ([3]; Bank No. 0525, Klebsiella pneumoniae): 1 µg/mL
- MIC ([3]; Bank No. 0526, Pseudomonas aeruginosa): 2 µg/mL
- MIC ([3]; Bank No. 0527, Pseudomonas aeruginosa): 1 µg/mL
- MIC ([3]; Bank No. 0528, Pseudomonas aeruginosa): 1 µg/mL
- MIC ([3]; Bank No. 0529, Pseudomonas aeruginosa): 0.5 µg/mL
- MIC50 ([3]; Imipenem/Relebactam panel): 0.5 µg/mL
- MIC90 ([3]; Imipenem/Relebactam panel): 1 µg/mL
- membrane depolarization (diSC3-5) [4]: dose-dependent increase in membrane depolarization, equivalent or superior to that of melittin, LL37, RI-18, and PMBN
- MIC ([5]; CDC Antibiotic-Resistant Bank No. 0229): 0.5 µg/mL
- MIC ([5]; CDC Antibiotic-Resistant Bank No. 0230): 0.5 µg/mL
- MIC ([5]; CDC Antibiotic-Resistant Bank No. 0231): 0.5 µg/mL
- MIC ([5]; CDC Antibiotic-Resistant Bank No. 0232): 0.5 µg/mL
- MIC ([5]; CDC Antibiotic-Resistant Bank No. 0233): 0.5 µg/mL
- MIC ([5]; CDC Antibiotic-Resistant Bank No. 0234): 0.5 µg/mL
- MIC ([5]; CDC Antibiotic-Resistant Bank No. 0235): 0.5 µg/mL
- MIC ([5]; CDC Antibiotic-Resistant Bank No. 0236): 0.5 µg/mL
- MIC ([5]; CDC Antibiotic-Resistant Bank No. 0237): 0.5 µg/mL
- MIC ([5]; CDC Antibiotic-Resistant Bank No. 0238): 0.5 µg/mL
- MIC ([5]; CDC Antibiotic-Resistant Bank No. 0239): 1 µg/mL
- MIC ([5]; CDC Antibiotic-Resistant Bank No. 0240): 1 µg/mL
- MIC ([5]; CDC Antibiotic-Resistant Bank No. 0241): 1 µg/mL
- MIC ([5]; CDC Antibiotic-Resistant Bank No. 0242): 0.5 µg/mL
- MIC ([5]; CDC Antibiotic-Resistant Bank No. 0243): 0.5 µg/mL
- MIC ([5]; CDC Antibiotic-Resistant Bank No. 0244): 1 µg/mL
- MIC ([5]; CDC Antibiotic-Resistant Bank No. 0245): 0.5 µg/mL
- MIC ([5]; CDC Antibiotic-Resistant Bank No. 0246): 1 µg/mL
- MIC ([5]; CDC Antibiotic-Resistant Bank No. 0247): 1 µg/mL
- MIC ([5]; CDC Antibiotic-Resistant Bank No. 0248): 1 µg/mL
- MIC ([5]; CDC Antibiotic-Resistant Bank No. 0249): 1 µg/mL
- MIC ([5]; CDC Antibiotic-Resistant Bank No. 0250): 1 µg/mL
- MIC ([5]; CDC Antibiotic-Resistant Bank No. 0251): 1 µg/mL
- MIC ([5]; CDC Antibiotic-Resistant Bank No. 0252): 1 µg/mL
- MIC ([5]; CDC Antibiotic-Resistant Bank No. 0253): 1 µg/mL
- MIC ([5]; CDC Antibiotic-Resistant Bank No. 0254): 1 µg/mL
- MIC ([5]; CDC Antibiotic-Resistant Bank No. 0255): 1 µg/mL
- MIC ([5]; CDC Antibiotic-Resistant Bank No. 0256): 1 µg/mL
- MIC ([5]; CDC Antibiotic-Resistant Bank No. 0257): 1 µg/mL
- MIC ([5]; CDC Antibiotic-Resistant Bank No. 0258): 2 µg/mL
- MIC ([5]; CDC Antibiotic-Resistant Bank No. 0259): 1 µg/mL
- MIC ([5]; CDC Antibiotic-Resistant Bank No. 0260): 0.5 µg/mL
- MIC ([5]; CDC Antibiotic-Resistant Bank No. 0261): 1 µg/mL
- MIC ([5]; CDC Antibiotic-Resistant Bank No. 0262): 1 µg/mL
- MIC ([5]; CDC Antibiotic-Resistant Bank No. 0263): 1 µg/mL
- MIC ([5]; CDC Antibiotic-Resistant Bank No. 0264): 1 µg/mL
- MIC ([5]; CDC Antibiotic-Resistant Bank No. 0265): 1 µg/mL
- MIC ([5]; CDC Antibiotic-Resistant Bank No. 0266): 1 µg/mL
- MIC ([5]; CDC Antibiotic-Resistant Bank No. 0267): 1 µg/mL
- MIC ([5]; CDC Antibiotic-Resistant Bank No. 0268): 1 µg/mL
- MIC ([5]; CDC Antibiotic-Resistant Bank No. 0269): 1 µg/mL
- MIC ([5]; CDC Antibiotic-Resistant Bank No. 0270): 0.5 µg/mL
- MIC ([5]; CDC Antibiotic-Resistant Bank No. 0271): 1 µg/mL
- MIC ([5]; CDC Antibiotic-Resistant Bank No. 0272): 1 µg/mL
- MIC ([5]; CDC Antibiotic-Resistant Bank No. 0763): 1 µg/mL
- MIC ([5]; CDC Antibiotic-Resistant Bank No. 0764): 1 µg/mL
- MIC ([5]; CDC Antibiotic-Resistant Bank No. 0765): 1 µg/mL
- MIC ([5]; CDC Antibiotic-Resistant Bank No. 0766): 1 µg/mL
- MIC ([5]; CDC Antibiotic-Resistant Bank No. 0767): 1 µg/mL
- MIC ([5]; CDC Antibiotic-Resistant Bank No. 0768): 0.5 µg/mL
- MIC ([5]; CDC Antibiotic-Resistant Bank No. 0769): 1 µg/mL
- MIC ([5]; CDC Antibiotic-Resistant Bank No. 0770): 1 µg/mL
- MIC ([5]; CDC Antibiotic-Resistant Bank No. 0771): 1 µg/mL
- MIC ([5]; CDC Antibiotic-Resistant Bank No. 0772): 1 µg/mL
- MIC ([5]; CDC Antibiotic-Resistant Bank No. 0773): 1 µg/mL
- MIC50 ([5]; Pseudomonas aeruginosa panel): 1 µg/mL
- MIC90 ([5]; Pseudomonas aeruginosa panel): 1 µg/mL

Compound: NC[C@H]1O[C@H](O[C@H]2[C@H](O)[C@@H](O[C@H]3O[C@H](CO)[C@@H](O)[C@H](N)[C@H]3O)[C@H](N)C[C@@H]2N)[C@H](N)C[C@@H]1O [tobramycin, reference compound]
- MIC ([6]; ATCC25177): 4 µg/mL (≈ 8.56 µM)
- MIC ([6]; ATCC35817): 4 µg/mL (≈ 8.56 µM)
